Source: US8513260B2, “Pyrazinylpyrazoles” (Bayer CropScience AG, priority 2009, dated 2013)
Like-named read-outs stand apart in the source and are kept apart here.

Legend:
Boophilus microplus = Boophilus microplus test (BOOPMI injection); format: in vivo; conditions: Rhipicephalus microplus, 168 h; 20 μg animal; injection into the abdomen; after 7 days, laying of fertile eggs; read-out: efficacy
Method in brief: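 Adult female ticks injected in the abdomen with active ingredient in DMSO, then held in a climate-controlled room. Efficacy (%) scored after 7 days from laying of fertile eggs, 100% meaning no tick laid fertile eggs.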

[1] = system: Tick nymphs (Amblyomma hebraeum); assay: Amblyomma hebraeum test (AMBYHE); format: in vivo; conditions: 100 ppm; immersed one minute; after 42 days
Description: Amblyomma hebraeum Test (AMBYHE) Solvent: dimethyl sulphoxide To prepare an appropriate active ingredient formulation, 10 mg of active ingredient are mixed with 0.5 ml of dimethyl sulphoxide and the concentrate is diluted with water to the desired concentration. Tick nymphs (Amblyomma hebraeum) are placed into perforated plastic beakers and immersed in the desired concentration for one minute. The ticks are transferred on filter paper into a Petri dish and stored in a climate-controlled cabinet. After 42 days, the kill in % is determined. 100% means that all of the ticks have been killed; 0% means that none of the ticks have been killed.

[2] = system: caterpillars of the armyworm (Spodoptera frugiperda); assay: Spodoptera frugiperda test (SPODFR spray treatment); format: in vivo; conditions: Spodoptera frugiperda, foliar, 168 h, maize leaf discs, after 7 days, read-out: efficacy
Method in brief: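 Maize leaf discs sprayed with the compound at the desired concentration, formulated in acetone/dimethylformamide with alkylaryl polyglycol ether emulsifier and diluted in water, then infested with armyworm caterpillars after drying. Efficacy read after 7 days as % caterpillars killed (100% = all dead, 0% = none).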

[3] = system: red spider mite (Tetranychus urticae); assay: Tetranychus test, OP-resistant (TETRUR spray treatment); format: in vivo; conditions: Tetranychus urticae, foliar, 144 h, 500 g/ha, bean leaf discs, after 6 days, read-out: efficacy
Method in brief: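 Bean leaf discs (Phaseolus vulgaris) infested with all mite stages were sprayed with active ingredient diluted in emulsifier-containing water at the desired concentration. Mortality read after 6 days as % efficacy, where 100% = all mites killed and 0% = none killed.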

[4] = system: unfed adult fleas (Ctenocephalides felis); assay: Ctenocephalides felis test (CTECFE); format: in vivo; conditions: Ctenocephalides felis, 48 h; 100 ppm in citrated cow's blood; after 2 days; read-out: efficacy (kill)
Description: Ctenocephalides felis Test ([…]) Solvent: 1 part by weight of dimethyl sulphoxide For the purpose of preparing an appropriate active ingredient formulation, 10 mg of active ingredient are mixed with 0.5 ml of dimethyl sulphoxide. A portion of the concentrate is diluted with citrated cow's blood and the desired concentration is established. About 20 unfed adult fleas (Ctenocephalides felis) are introduced into a chamber closed at the top and bottom with gauze. A metal cylinder, the bottom of which is closed with Parafilm, is placed onto the chamber. The cylinder contains the blood/active ingredient preparation, which can be imbibed by the fleas through the Parafilm membrane. After 2 days, the kill in % is determined. 100% means that all fleas have been killed; 0% means that none of the fleas have been killed.

Lucilia cuprina larvae = assay: Lucilia cuprina test (LUCICU); format: in vivo; conditions: 48 h, treated horse meat, after 2 days, read-out: efficacy (kill)
Description: (§1) Lucilia cuprina Test (LUCICU) Solvent: dimethyl sulphoxide To prepare an appropriate active ingredient formulation, 10 mg of active ingredient are mixed with 0.5 ml of dimethyl sulphoxide and the concentrate is diluted with water to the desired concentration. Vessels containing horse meat treated with the active ingredient preparation of the desired concentration are populated with about 20 Lucilia cuprina larvae. After 2 days, the kill in % is determined. 100% means that all of the larvae have been killed; 0% means that none of the larvae have been killed.

[5] = logP by HPLC on reversed-phase columns (C 18), EEC Directive 79/831 Annex V.A8; format: physicochemical; conditions: reversed-phase C18 HPLC column, read-out: log P
Excerpt: [table] The calibration is effected with unbranched alkan-2-ones (having 3 to 16 carbon atoms) with known logP values (logP values determined on the basis of the retention times by linear interpolation between two successive alkanones).

[6] = system: green peach aphid (Myzus persicae); assay: Myzus test (MYZUPE spray treatment); format: in vivo; conditions: Myzus persicae, 144 h, Chinese cabbage discs, after 6 days, read-out: efficacy
Description: Myzus Test (MYZUPE Spray Treatment) Solvent: 78 parts by weight of acetone • • 1.5 parts by weight of dimethylformamide Emulsifier: 0.5 part by weight of alkylaryl polyglycol ether To prepare an appropriate active ingredient preparation, 1 part by weight of active ingredient is mixed with the stated amounts of solvent and emulsifier, and the concentrate is diluted with emulsifier-containing water to the desired concentration. Discs of Chinese cabbage (Brassica pekinensis) infested by all stages of the green peach aphid (Myzus persicae) are sprayed with an active ingredient preparation of the desired concentration. After 6 days, the efficacy in % is determined. 100% means that all of the aphids have been destroyed; 0% means that none of the aphids have been destroyed.

[7] = system: larvae of the mustard beetle (Phaedon cochleariae); assay: Phaedon test (PHAECO spray treatment); format: in vivo; conditions: Phaedon cochleariae, 168 h, Chinese cabbage discs, after 7 days, read-out: efficacy
Method in brief: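 Chinese cabbage leaf discs were sprayed with compound formulated in acetone/dimethylformamide with alkylaryl polyglycol ether emulsifier and diluted in emulsifier-containing water. After drying, discs were populated with mustard beetle larvae. Efficacy (% larvae killed; 100% = all dead) was scored after 7 days.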

[8] = system: adult engorged Boophilus microplus females of the SP-resistant Parkhurst strain; assay: Boophilus microplus (dip); format: in vivo; conditions: Rhipicephalus microplus, 168 h, after 7 days, laying of fertile eggs, read-out: efficacy
Description: Boophilus microplus (dip)
Test animals: adult engorged Boophilus microplus females of the SP-resistant Parkhurst strain
Solvent: dimethyl sulphoxide
10 mg of active ingredient are dissolved in 0.5 ml of dimethyl sulphoxide. For the purpose of preparing a suitable formulation, the active ingredient solution is diluted with water to the concentration desired in each case. This active ingredient preparation is pipetted into tubes. 8-10 ticks are transferred into a further tube with holes. The tube is immersed into the active ingredient formulation, and all ticks are completely wetted. After the liquid has run out, the ticks are transferred onto filter discs in plastic dishes and stored in a climate-controlled room. The activity is assessed after 7 days by laying of fertile eggs. Eggs whose fertility is not outwardly visible are stored in glass tubes in a climate-controlled cabinet until the larvae hatch. Efficacy of 100% means that none of the ticks has laid any fertile eggs.

adult Musca domestica = assay: Musca domestica test; format: in vivo; conditions: after 2 days
Description: as §1, with “Musca domestica” for “Lucilia cuprina”, “Test” for “Test (LUCICU)”, “a sponge” for “horse meat”, “adult Musca domestica.” for “about 20 Lucilia cuprina larvae.”, “flies” for “larvae”

[9] = pH 2.7, * LC-MS, acidic range pH 2.7, 0.1% aqueous formic acid and acetonitrile

Row | chromatographic logP [5, 9] | chromatographic logP ([5]; pH 2.3, ** acidic range pH 2.3, 0.1% aqueous phosphoric acid and acetonitrile) | chromatographic logP ([5]; pH 7.8, *** LC-MS, neutral range pH 7.8, 0.001 molar aqueous ammonium hydrogencarbonate and acetonitrile) | SMILES | pest or weed control at 0.02 mg (Boophilus microplus) | efficacy (kill) [1] | pest or weed control at 500 g/ha [2] | pest or weed control at 500 g/ha [3] | pest or weed control at 100 ppm [4] | pest or weed control at 100 ppm (Lucilia cuprina larvae) | pest or weed control at 500 g/ha [6] | pest or weed control at 500 g/ha [7] | pest or weed control at 100 ppm [8] | efficacy (kill) (adult Musca domestica; 20 ppm) | efficacy (kill) (adult Musca domestica; 100 ppm)
1 | 3.14 |  |  | COc1nccnc1-n1nc(C(F)(F)F)c(-c2cc(Cl)c3c(c2)OCO3)c1N [Ex. 48] | 100% | 100% | 100% | 100% | 100% | 100% | 90% | 100% | 100% | 90% | 
2 | 4.2 |  |  | COc1nccnc1-n1nc(C(F)(F)F)c(-c2cc(C(F)(F)F)cc(C(F)(F)F)c2)c1N [Ex. 14] | 100% |  | 100% | 100% | 100% | 100% | 100% | 100% | 90% | 90% | 
3 |  | 3.6 |  | CCOc1nccnc1-n1nc(C(F)(F)F)c(-c2ccc(Br)cc2)c1N [Ex. 5] | 100% |  |  | 80% |  | 100% |  | 100% | 100% |  | 80%
4 | 2.57 |  |  | CCc1nn(-c2nccnc2OC)c(N)c1-c1cc(Cl)c2c(c1)OCO2 [Ex. 76] | 100% | 100% | 83% |  | 90% | 100% | 80% | 100% | 100% |  | 80%
5 | 2.26 |  |  | COc1nccnc1-n1nc(C)c(-c2cc(Cl)c3c(c2)OCO3)c1N [Ex. 75] | 100% |  | 100% | 100% | 100% | 100% | 100% | 100% | 100% |  | 100%
6 |  |  | 3.4 | COc1nccnc1-n1nc(C(F)(F)F)c(-c2ccc(Br)cc2)c1N [Ex. 2] | 100% |  |  | 100% | 90% | 100% |  | 100% | 100% | 80% | 
